Assay results published in US6544990B2, “Substituted quinolinecarboxamides as antiviral agents” (Pharmacia & Upjohn Company, priority 2001, dated 2003).

How the values were obtained:
[1] = biological target: VZV polymerase (Varicella-zoster virus, UniProt P09252); assay: Polymerase scintillation proximity assay (SPA), VZV; assay type: biochemical
[2] = biological target: HSV polymerase (Human herpesvirus 1, UniProt P04293); assay: Polymerase scintillation proximity assay (SPA), HSV; assay type: biochemical
[3] = biological target: T1, HCMV polymerase (Human cytomegalovirus, UniProt P08546); assay: HCMV polymerase scintillation proximity assay (SPA); assay type: biochemical; conditions: CMV polymerase
T1 construct: made in house; host or cells: recombinant baculovirus-infected SF-9 cells
Procedure: The HCMV polymerase assay is performed using a scintillation proximity assay (SPA) as described in several references, such as N. D. Cook, et al., Pharmaceutical Manufacturing International, pages 49-53 (1992); K. Takeuchi, Laboratory Practice, September issue (1992); U.S. Pat. No. 4,568,649 (1986); which are incorporated by reference herein. Reactions are performed in 96-well plates. The assay is conducted in 100 μl volume with 5.4 mM HEPES (pH 7.5), 11.7 mM KCl, 4.5 mM MgCl2, 0.36 mg/ml BSA, and 90 nM 3H-dTTP. Assays are run with and without CHAPS, (3-[(3-Cholamidopropyl)-dimethylammonio]-1-propane-sulfonate) at a final concentration of 2 mM. HCMV polymerase is diluted in enzyme dilution buffer containing 50% glycerol, 250 mM NaCl, 10 mM HEPES (pH 7.5), 100 μg/ml BSA, and 0.01% sodium azide. The HCMV polymerase, which is expressed in recombinant baculovirus-infected SF-9 cells and purified according to literature procedures, is added at 10% (or 10 μl ) of the final reaction volume, i.e., 100 μl. Compounds are diluted in 50% DMSO and 10 μl are added to each well. Control wells contain an equivalent concentration of DMSO. Unless noted otherwise, reactions are initiated via the addition of 6 nM biotinylated poly(dA)-oligo(dT) template/primer to reaction mixtures containing the enzyme, substrate, and compounds of interest. Plates are incubated in a 25 C or 37 C H20 bath and terminated via the addition of 40 μl/reaction of 0.5 M EDTA (pH 8) per well. Reactions are terminated within the time-frame during which substrate incorporation is linear and varied depending upon the enzyme and conditions used, i.e., 30 min. for HCMV polymerase. Ten μl of streptavidin-SPA beads (20 mg/mil in PBS/10% glycerol) are added following termination of the reaction. Plates are incubated 10 min. at 37 C, then equilibrated to room temperature, and counted on a Packard Topcount. Linear regressions are performed and IC50's are calculated using computer software.
A modified version of the above HCMV polymerase assay is performed as described above, but with the following changes: Compounds are diluted in 100% DMSO until final dilution into assay buffer. In the previous assay, compounds are diluted in 50% DMSO. 4.5 mM dithiotherotol (DTT) is added to the polymerase buffer.

T1 sequence (P08546 whole entry): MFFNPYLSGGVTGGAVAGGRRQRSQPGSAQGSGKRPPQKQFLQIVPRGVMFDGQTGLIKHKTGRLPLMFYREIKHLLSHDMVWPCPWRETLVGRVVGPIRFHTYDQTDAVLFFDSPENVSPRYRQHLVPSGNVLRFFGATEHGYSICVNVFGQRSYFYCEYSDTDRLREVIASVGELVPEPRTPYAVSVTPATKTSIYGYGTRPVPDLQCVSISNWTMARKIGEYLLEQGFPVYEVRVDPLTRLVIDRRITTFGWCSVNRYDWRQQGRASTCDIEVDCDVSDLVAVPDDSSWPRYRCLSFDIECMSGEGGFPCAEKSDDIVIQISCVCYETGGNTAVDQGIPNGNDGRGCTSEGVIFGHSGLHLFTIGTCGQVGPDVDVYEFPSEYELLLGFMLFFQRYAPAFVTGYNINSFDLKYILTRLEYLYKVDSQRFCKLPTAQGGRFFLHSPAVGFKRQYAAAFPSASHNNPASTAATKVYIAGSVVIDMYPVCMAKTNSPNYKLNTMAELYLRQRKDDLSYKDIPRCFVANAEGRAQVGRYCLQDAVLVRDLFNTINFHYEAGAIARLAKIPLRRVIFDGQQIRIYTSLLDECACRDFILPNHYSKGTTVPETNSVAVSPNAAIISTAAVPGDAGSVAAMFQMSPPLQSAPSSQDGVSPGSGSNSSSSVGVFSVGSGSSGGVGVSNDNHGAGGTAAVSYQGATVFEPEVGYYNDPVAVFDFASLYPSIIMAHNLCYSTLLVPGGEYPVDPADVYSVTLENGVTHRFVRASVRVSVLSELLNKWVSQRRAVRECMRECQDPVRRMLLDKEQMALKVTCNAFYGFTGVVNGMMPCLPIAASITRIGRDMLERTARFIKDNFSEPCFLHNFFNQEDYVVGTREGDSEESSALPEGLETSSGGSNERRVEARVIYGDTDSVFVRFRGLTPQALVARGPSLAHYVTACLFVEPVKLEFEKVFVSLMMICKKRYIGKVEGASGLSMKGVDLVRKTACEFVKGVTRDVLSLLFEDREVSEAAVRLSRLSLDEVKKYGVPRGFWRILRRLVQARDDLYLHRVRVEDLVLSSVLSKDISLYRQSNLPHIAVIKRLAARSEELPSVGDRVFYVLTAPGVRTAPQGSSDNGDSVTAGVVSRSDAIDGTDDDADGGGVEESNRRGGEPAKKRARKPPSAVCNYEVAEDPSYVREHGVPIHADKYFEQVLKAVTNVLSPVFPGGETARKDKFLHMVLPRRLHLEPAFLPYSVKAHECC
HSV polymerase, sequence (P04293 whole entry): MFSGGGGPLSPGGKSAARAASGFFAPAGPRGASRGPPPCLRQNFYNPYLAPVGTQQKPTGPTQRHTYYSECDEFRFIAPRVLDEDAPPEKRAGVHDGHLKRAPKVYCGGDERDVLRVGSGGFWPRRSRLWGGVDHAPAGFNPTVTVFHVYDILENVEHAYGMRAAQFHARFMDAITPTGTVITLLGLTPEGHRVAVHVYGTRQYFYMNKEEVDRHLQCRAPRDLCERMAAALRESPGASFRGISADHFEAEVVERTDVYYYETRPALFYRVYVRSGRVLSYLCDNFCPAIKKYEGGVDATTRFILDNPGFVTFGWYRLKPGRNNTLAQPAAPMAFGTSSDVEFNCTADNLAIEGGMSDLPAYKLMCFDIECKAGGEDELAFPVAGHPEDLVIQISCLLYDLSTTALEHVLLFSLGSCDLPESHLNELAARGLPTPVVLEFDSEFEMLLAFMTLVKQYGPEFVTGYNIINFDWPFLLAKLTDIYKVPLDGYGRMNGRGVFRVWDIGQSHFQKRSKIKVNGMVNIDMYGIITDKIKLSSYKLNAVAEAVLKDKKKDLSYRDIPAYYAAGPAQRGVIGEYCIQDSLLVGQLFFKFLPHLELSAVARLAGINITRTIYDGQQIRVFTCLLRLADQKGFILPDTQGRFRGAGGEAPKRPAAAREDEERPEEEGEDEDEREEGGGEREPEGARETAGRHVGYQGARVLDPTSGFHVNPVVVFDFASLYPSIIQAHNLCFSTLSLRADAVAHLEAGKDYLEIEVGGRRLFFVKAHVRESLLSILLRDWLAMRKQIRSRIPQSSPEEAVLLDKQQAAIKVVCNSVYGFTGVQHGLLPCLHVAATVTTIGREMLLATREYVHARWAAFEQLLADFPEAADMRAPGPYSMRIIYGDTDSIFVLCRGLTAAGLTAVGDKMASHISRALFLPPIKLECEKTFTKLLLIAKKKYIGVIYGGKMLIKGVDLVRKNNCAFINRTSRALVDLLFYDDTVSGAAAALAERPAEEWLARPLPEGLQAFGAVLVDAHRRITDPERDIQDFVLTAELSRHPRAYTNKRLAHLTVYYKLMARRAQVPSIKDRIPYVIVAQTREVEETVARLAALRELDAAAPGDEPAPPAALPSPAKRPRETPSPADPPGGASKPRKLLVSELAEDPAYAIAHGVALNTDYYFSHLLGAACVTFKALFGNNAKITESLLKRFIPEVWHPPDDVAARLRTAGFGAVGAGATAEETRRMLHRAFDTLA
VZV polymerase, sequence (P09252 whole entry): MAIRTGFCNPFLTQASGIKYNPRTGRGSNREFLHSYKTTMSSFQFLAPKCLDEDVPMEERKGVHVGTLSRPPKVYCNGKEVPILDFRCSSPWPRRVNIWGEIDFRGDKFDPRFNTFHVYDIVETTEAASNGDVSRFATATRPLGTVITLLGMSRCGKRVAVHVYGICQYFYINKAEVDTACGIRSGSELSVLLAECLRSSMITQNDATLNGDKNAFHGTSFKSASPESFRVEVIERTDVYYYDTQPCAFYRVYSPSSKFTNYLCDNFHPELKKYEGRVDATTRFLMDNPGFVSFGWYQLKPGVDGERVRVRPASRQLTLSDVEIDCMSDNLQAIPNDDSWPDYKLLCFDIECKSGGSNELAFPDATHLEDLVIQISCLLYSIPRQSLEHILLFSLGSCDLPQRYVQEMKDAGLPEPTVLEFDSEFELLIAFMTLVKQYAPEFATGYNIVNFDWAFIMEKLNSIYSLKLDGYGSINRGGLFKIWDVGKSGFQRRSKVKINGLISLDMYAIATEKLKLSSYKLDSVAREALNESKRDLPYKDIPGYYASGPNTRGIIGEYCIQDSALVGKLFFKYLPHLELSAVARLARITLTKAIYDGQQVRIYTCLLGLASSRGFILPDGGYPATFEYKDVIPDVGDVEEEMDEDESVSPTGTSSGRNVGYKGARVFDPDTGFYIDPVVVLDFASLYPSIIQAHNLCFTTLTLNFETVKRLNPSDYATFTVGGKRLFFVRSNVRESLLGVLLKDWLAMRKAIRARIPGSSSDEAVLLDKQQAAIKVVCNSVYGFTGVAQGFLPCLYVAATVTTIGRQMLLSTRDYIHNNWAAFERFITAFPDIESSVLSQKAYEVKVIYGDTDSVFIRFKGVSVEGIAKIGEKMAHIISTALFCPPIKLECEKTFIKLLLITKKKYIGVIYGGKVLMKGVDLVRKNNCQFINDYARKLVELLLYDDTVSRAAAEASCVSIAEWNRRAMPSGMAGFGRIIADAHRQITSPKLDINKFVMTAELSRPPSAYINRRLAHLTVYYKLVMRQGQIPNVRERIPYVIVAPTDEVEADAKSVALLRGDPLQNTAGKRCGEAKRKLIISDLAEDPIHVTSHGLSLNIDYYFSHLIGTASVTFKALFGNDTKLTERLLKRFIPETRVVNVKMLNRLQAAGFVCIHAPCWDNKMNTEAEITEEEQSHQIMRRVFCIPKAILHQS

SMILES | IC50 [1] [µM] | melting point [°C] | IC50 [2] [µM] | IC50 [3] [µM]
CN(C)CC#Cc1cc(CC2CCOCC2)cc2c(=O)c(C(=O)NCc3ccc(Cl)cc3)cn(C)c12 [Example 3, N-(4-chlorobenzyl)-8-[3-(dimethylamino)-1-propynyl]-1-methyl-4-oxo-6-(tetrahydro-2H-pyran-4-ylmethyl)-1,4-dihydro-3-quinolinecarboxamide] |  | 157 to 159 |  | 0.87
Cn1cc(C(=O)NCc2ccc(Cl)cc2)c(=O)c2cc(CN3CCOCC3)cc(C#CCO)c21 [Example 4, N-(4-chlorobenzyl)-8-(3-hydroxy-1-propynyl)-1-methyl-6-(4-morpholinylmethyl)-4-oxo-1,4-dihydro-3-quinolinecarboxamide] | 0.36 | 180 to 183 | 0.83 | 0.83
CN(C)CC#Cc1cc(CN2CCOCC2)cc2c(=O)c(C(=O)NCc3ccc(Cl)cc3)cn(C)c12 [Example 5, N-(4-chlorobenzyl)-8-[3-(dimethylamino)-1-propynyl]-1-methyl-6-(4-morpholinylmethyl)-4-oxo-1,4-dihydro-3-quinolinecarboxamide] |  | 154 to 157 |  | 1.6
Cn1cc(C(=O)NCc2ccc(Cl)cc2)c(=O)c2cc(CN3CCOCC3)cc(C#CCCO)c21 [Example 6, N-(4-chlorobenzyl)-8-(4-hydroxy-1-butynyl)-1-methyl-6-(4-morpholinylmethyl)-4-oxo-1,4-dihydro-3-quinolinecarboxamide] | 0.36 | 168 to 170 | 0.82 | 0.8
Cn1cc(C(=O)NCc2ccc(Cl)cc2)c(=O)c2cc(CN3CCOCC3)cc(C#CCN3CCC(O)CC3)c21 [Example 19, N-(4-chlorobenzyl)-8-[3-(4-hydroxypiperidin-1-yl)prop-1-ynyl]-1-methyl-6-(morpholin-4-ylmethyl)-4-oxo-1,4-dihydroquinoline-3-carboxamide] |  | 180 to 183 |  | 1.01
Cn1cc(C(=O)NCc2ccc(Cl)cc2)c(=O)c2cc(CN3CCOCC3)cc(C#CCN3CCC(O)C3)c21 (centres unmarked) [Example 20, N-(4-chlorobenzyl)-8-[3-(3-hydroxypyrrolidin-1-yl)prop-1-ynyl]-1-methyl-6-(morpholin-4-ylmethyl)-4-oxo-1,4-dihydroquinoline-3-carboxamide] |  | 144 to 146 |  | 1.02
CN(CC#Cc1cc(CN2CCOCC2)cc2c(=O)c(C(=O)NCc3ccc(Cl)cc3)cn(C)c12)CC(O)CO (centres unmarked) [Example 21, N-(4-chlorobenzyl)-8-{3-[(2,3-dihydroxypropyl)(methyl)amino]prop-1-ynyl}-1-methyl-6-(morpholin-4-ylmethyl)-4-oxo-1,4-dihydroquinoline-3-carboxamide] |  | 140 to 142 |  | 0.8
CN(CC#Cc1cc(CN2CCOCC2)cc2c(=O)c(C(=O)NCc3ccc(Cl)cc3)cn(C)c12)CCO [Example 22, N-(4-chlorobenzyl)-8-{3-[(2-hydroxyethyl)(methyl)amino]prop-1-ynyl}-1-methyl-6-(morpholin-4-ylmethyl)-4-oxo-1,4-dihydroquinoline-3-carboxamide] |  | 148 to 149 |  | 0.82
Cn1cc(C(=O)NCc2ccc(Cl)cc2)c(=O)c2cc(CN3CCOCC3)cc(C#CCN3CCN(CCO)CC3)c21 [Example 26, N-(4-chlorobenzyl)-8-{3-[4-(2-hydroxyethyl)piperazin-1-yl]prop-1-ynyl}-1-methyl-6-(morpholin-4-ylmethyl)-4-oxo-1,4-dihydroquinoline-3-carboxamide] |  |  |  | 1.29
Cn1cc(C(=O)NCc2ccc(Cl)cc2)c(=O)c2cc(CN3CCOCC3)cc(C#CCN3CCC[C@H]3CO)c21 [Example 27, N-(4-chlorobenzyl)-8-{3-[(2S)-2-(hydroxymethyl)pyrrolidin-1-yl]prop-1-ynyl}-1-methyl-6-(morpholin-4-ylmethyl)-4-oxo-1,4-dihydroquinoline-3-carboxamide] |  |  |  | 0.94
Cn1cc(C(=O)NCc2ccc(Cl)cc2)c(=O)c2cc(CN3CCOCC3)cc(C#CCN3CCCC(O)C3)c21 (centres unmarked) [Example 28, N-(4-chlorobenzyl)-8-[3-(3-hydroxypiperidin-1-yl)prop-1-ynyl]-1-methyl-6-(morpholin-4-ylmethyl)-4-oxo-1,4-dihydroquinoline-3-carboxamide] |  |  |  | 0.82

These reach a lower IC50 [3]. Values come first.

IC50 [1] [µM] | melting point [°C] | IC50 [2] [µM] | IC50 [3] [µM] | SMILES
0.18 | 166 to 168 | 0.25 | 0.32 | Cn1cc(C(=O)NCc2ccc(Cl)cc2)c(=O)c2cc(CC3CCOCC3)cc(C#CCO)c21 [Example 1, N-(4-chlorobenzyl)-8-(3-hydroxy-1-propynyl)-1-methyl-4-oxo-6-(tetrahydro-2H-pyran-4-ylmethyl)-1,4-dihydro-3-quinolinecarboxamide]
 | 186 to 188 |  | 0.32 | Cn1cc(C(=O)NCc2ccc(Cl)cc2)c(=O)c2cc(CC3CCOCC3)cc(C#CCCO)c21 [Example 2, N-(4-chlorobenzyl)-8-(4-hydroxy-1-butynyl)-1-methyl-4-oxo-6-(tetrahydro-2H-pyran-4-ylmethyl)-1,4-dihydro-3-quinolinecarboxamide]
 | 171 to 173 |  | 0.55 | Cn1cc(C(=O)NCc2ccc(Cl)cc2)c(=O)c2cc(CN3CCOCC3)cc(C#CCC[C@@H]3COC(=O)N3)c21 [Example 9, N-(4-chlorobenzyl)-1-methyl-6-(4-morpholinylmethyl)-4-oxo-8-{4-[(4R)-2-oxo-1,3-oxazolidin-4-yl]-1-butynyl}-1,4-dihydro-3-quinolinecarboxamide]
 | 189 to 191 |  | 0.77 | Cn1cc(C(=O)NCc2ccc(Cl)cc2)c(=O)c2cc(CN3CCOCC3)cc(C#CCF)c21 [Example 12, N-(4-chlorobenzyl)-8-(3-fluoroprop-1-ynyl)-1-methyl-6-(morpholin-4-ylmethyl)-4-oxo-1,4-dihydroquinoline-3-carboxamide]
 |  |  | 0.52 | Cc1cncn1CC#Cc1cc(CN2CCOCC2)cc2c(=O)c(C(=O)NCc3ccc(Cl)cc3)cn(C)c12 [Example 14, N-(4-chlorobenzyl)-1-methyl-8-[3-(5-methyl-1H-imidazol-1-yl)prop-1-ynyl]-6-(morpholin-4-ylmethyl)-4-oxo-1,4-dihydroquinoline-3-carboxamide]
 | 178 to 180 |  | 0.61 | CC(O)CC#Cc1cc(CN2CCOCC2)cc2c(=O)c(C(=O)NCc3ccc(Cl)cc3)cn(C)c12 (centres unmarked) [Example 18, N-(4-chlorobenzyl)-8-(4-hydroxypent-1-ynyl)-1-methyl-6-(morpholin-4-ylmethyl)-4-oxo-1,4-dihydroquinoline-3-carboxamide]
 | 190 to 193 |  | 0.56 | Cn1cc(C(=O)NCc2ccc(Cl)cc2)c(=O)c2cc(CN3CCOCC3)cc(C#CCC(CO)CO)c21 [Example 24, N-(4-chlorobenzyl)-8-[5-hydroxy-4-(hydroxymethyl)pent-1-ynyl]-1-methyl-6-(morpholin-4-ylmethyl)-4-oxo-1,4-dihydroquinoline-3-carboxamide]
 |  |  | 0.74 | Cn1cc(C(=O)NCc2ccc(Cl)cc2)c(=O)c2cc(CN3CCOCC3)cc(C#CCN3CCCC(CO)C3)c21 (centres unmarked) [Example 25, N-(4-chlorobenzyl)-8-{3-[3-(hydroxymethyl)piperidin-1-yl]prop-1-ynyl}-1-methyl-6-(morpholin-4-ylmethyl)-4-oxo-1,4-dihydroquinoline-3-carboxamide]
 |  |  | 0.73 | Cn1cc(C(=O)NCc2ccc(Cl)cc2)c(=O)c2cc(CN3CCOCC3)cc(C#CCN3CCC[C@@H]3CO)c21 [Example 29, N-(4-chlorobenzyl)-8-{3-[(2R)-2-(hydroxymethyl)pyrrolidin-1-yl]prop-1-ynyl}-1-methyl-6-(morpholin-4-ylmethyl)-4-oxo-1,4-dihydroquinoline-3-carboxamide]
 |  |  | 0.71 | Cn1cc(C(=O)NCc2ccc(Cl)cc2)c(=O)c2cc(CN3CCOCC3)cc(C#CCN3CCCCC3CCO)c21 (centres unmarked) [Example 30, N-(4-chlorobenzyl)-8-{3-[2-(2-hydroxyethyl)piperidin-1-yl]prop-1-ynyl}-1-methyl-6-(morpholin-4-ylmethyl)-4-oxo-1,4-dihydroquinoline-3-carboxamide]
0.33 |  | 0.55 | 0.49 | CCCCN(CC#Cc1cc(CN2CCOCC2)cc2c(=O)c(C(=O)NCc3ccc(Cl)cc3)cn(C)c12)CCO [Example 31, 8-{3-[butyl(2-hydroxyethyl)amino]prop-1-ynyl}-N-(4-chlorobenzyl)-1-methyl-6-(morpholin-4-ylmethyl)-4-oxo-1,4-dihydroquinoline-3-carboxamide]
